Tests used:
SK-MEL-28 [1] = assay: Cell counting after 7 day peptide treatment; format: cell-based, human; conditions: CPP mimicking peptides, conc 10 µM, start count 10
Method: (§1) The ability to block interaction of MITF, SOX10 and STAT3 with active transcriptional complex and inhibit proliferation and stimulate apoptosis of melanoma cells were tested on human melanoma cell lines SK-MEL-28 and WM 266-4, and mouse melanoma cell line B16. Methods. Human melanoma cell lines SK-MEL-28 and WM 2664 and mouse melanoma cell line B16 were obtained from the American Tissue Culture Collection (ATCC). Cells were cultured according to recommendations of ATCC (DMEM, 10% FCS, penicillin+streptomycin) and used in experiments after two passages in the laboratory. Cells were grown in 24 well plates, each treatment in triplicates. Cells were plated 16 hours prior treatments started. Peptides were added to the media, and media was changed every day during 7 day experiment. CPP concentration was 10 μM For cell counting, cells were trypsinized (0.25% Trypsin, 2 mM EDTA) in Ca^+2, Mg^+2 free PBS. Cells were precipitated and resuspended in 100 μl of PBS, and 5 μl were removed for counting Methods. Human melanoma cell lines SK-MEL-28 and WM 266-4 were obtained from the American Tissue Culture Collection (ATCC) and were cultured according to recommendations of ATCC (DMEM, 10% FCS, penicillin+streptomycin). Human keratinocytes were obtained from Clonetics and cultured according to manufacturers protocol. Cells were used in experiments after two passages in the laboratory. Cells were grown in 24 well plates, each treatment in triplicates. Cells were plated 16 hours prior treatments started. Peptides were added to the media, and media was changed every day during 7 day experiment. CPP concentration was 10 μM. For cell counting, cells were trypsinized (0.25% Trypsin, 2 mM EDTA) in Ca, Mg free PBS. Cells were precipitated and resuspended in 100 μl of PBS, and 5 μl were removed for counting.

WM 266-4 [2] = assay: Cell counting after 7 day peptide treatment; format: cell-based, human; conditions: CPP mimicking peptides, conc 10 µM, start count 10
Method: as §1, with “CPP concentration was 10 μM For cell counting, cells were trypsinized (0.25% Trypsin, 2 mM EDTA) in Ca^+2, Mg^+2 free PBS.” left out, “CPP concentration was 10 μM.” left out

B16 [3] = assay: Cell counting after 7 day peptide treatment; format: cell-based, mouse; conditions: CPP mimicking peptides, conc 10 µM, start count 10
Method: The ability to block interaction of MITF, SOX10 and STAT3 with active transcriptional complex and inhibit proliferation and stimulate apoptosis of melanoma cells were tested on human melanoma cell lines SK-MEL-28 and WM 266-4, and mouse melanoma cell line B16. Methods. Human melanoma cell lines SK-MEL-28 and WM 2664 and mouse melanoma cell line B16 were obtained from the American Tissue Culture Collection (ATCC). Cells were cultured according to recommendations of ATCC (DMEM, 10% FCS, penicillin+streptomycin) and used in experiments after two passages in the laboratory. Cells were grown in 24 well plates, each treatment in triplicates. Cells were plated 16 hours prior treatments started. Peptides were added to the media, and media was changed every day during 7 day experiment. […] Cells were precipitated and resuspended in 100 μl of PBS, and 5 μl were removed for counting

SK-MEL-28 [4] = assay: WST-1 test (mitochondrial activity); format: cell-based, human; conditions: CPP mimicking peptides, conc 10 µM, untreated = 1
WM 266-4 [5] = assay: WST-1 test (mitochondrial activity); format: cell-based, human; conditions: CPP mimicking peptides, conc 10 µM, untreated = 1
Method: Methods. Human melanoma cell lines SK-MEL-28 and WM 2664 and mouse melanoma cell line B16 were obtained from the American Tissue Culture Collection (ATCC). Cells were cultured according to recommendations of ATCC (DMEM, 10% FCS, penicillin+streptomycin) and used in experiments after two passages in the laboratory. Cells were grown in 24 well plates, each treatment in triplicates. Cells were plated 16 hours prior treatments started. Peptides were added to the media, and media was changed every day during 7 day experiment. […] Methods. Human melanoma cell lines SK-MEL-28 and WM 266-4 were obtained from the American Tissue Culture Collection (ATCC) and were cultured according to recommendations of ATCC (DMEM, 10% FCS, penicillin+streptomycin). Human keratinocytes were obtained from Clonetics and cultured according to manufacturers protocol. Cells were used in experiments after two passages in the laboratory. Cells were grown in 24 well plates, each treatment in triplicates. Cells were plated 16 hours prior treatments started. Peptides were added to the media, and media was changed every day during 7 day experiment. […] WST-1 test was performed to measure mitochondrial activity, which can also be used as a measure of cell number.

B16 [6] = assay: WST-1 test (mitochondrial activity); format: cell-based, mouse; conditions: CPP mimicking peptides, conc 10 µM, untreated = 1
Method: Methods. Human melanoma cell lines SK-MEL-28 and WM 2664 and mouse melanoma cell line B16 were obtained from the American Tissue Culture Collection (ATCC). Cells were cultured according to recommendations of ATCC (DMEM, 10% FCS, penicillin+streptomycin) and used in experiments after two passages in the laboratory. Cells were grown in 24 well plates, each treatment in triplicates. Cells were plated 16 hours prior treatments started. Peptides were added to the media, and media was changed every day during 7 day experiment. […]

Dct/Trp2 promoter [7] = assay: Transient CAT assay, Dct/Trp2 proximal promoter-CAT construct in SK-MEL-28; format: cell-based, human; conditions: CPP concentration 10 μM
Method: (§2) SOX10 and MITF interact with the proximal promoter of Dct/Trp2 gene and induces its activity (Ludwig A. et al., FEBS Lett. 556 (1-3):236-244 (2004)). Thus, a Dct/Trp2 proximal promoter reporter construct was used to analyze effect of mimicking peptides on promoter activity using transient CAT assay.
(§3) Methods. Human melanoma cell lines SK-MEL-28 and WM 266-4 were obtained from the American Tissue Culture Collection (ATCC) and were cultured according to recommendations of ATCC (DMEM, 10% FCS, penicillin+streptomycin). Dct/Trp2 proximal promoter-CAT construct (Ludwig et al., supra) was used in all experiments.
(§4) Cells were transfected by using FuGene reagent (Roche Molecular Biochemicals) according to manufacturer's instructions. Freeze-thaw lysates of cells collected 48 h after the transfection were assayed for CAT activity as described (Pothier, F. et al., DNA Cell Biol. 11(1):83-90 (1992)). At least two different DNA preparations were tested for each plasmid. To normalize the transfection efficiencies, cells were cotransfected with pON260 expressing β-galactosidase (Spaete, R. R. and Mocarski, E. S., J. Virol. 54(3):817-24 (1985); Spaete, R. R. and Mocarski, E. S., J. Virol. 56(1):13543 (1985)). All the CAT activities were normalized to total protein and β-galatosidase activity.
(§5) Following transfection, cells were grown in 6 well plates, each treatment in triplicates. Peptides were added to the media and media was changed every day during the 7 day experiment. CPP concentration was 10 μM.

Dct/Trp2 promoter [8] = assay: Transient CAT assay, Dct/Trp2 proximal promoter-CAT construct in WM 266-4; format: cell-based, human; conditions: CPP concentration 10 μM
Method: as §2, §3, §4, §5

Question: How did the “Cell Count 7 d” value (SK-MEL-28 [1]) turn out when “RPKKRKVRRRQLMLEPYALDMSRIRVLSESLGLATQSG [Scr-int1, reference compound]” was run?
Answer: The value was 53.

Question: And the “Cell Count 7 d” value (WM 266-4 [2])?
Answer: The value was 41.

Question: And the “Cell Count 7 d” value (B16 [3])?
Answer: The value was 83.

Question: What about the “WST-1 7 d” value (SK-MEL-28 [4]) of the same sequence?
Answer: Its value is 1.

Question: And the “WST-1 7 d” value (WM 266-4 [5])?
Answer: The value was 1.

Question: What about the “WST-1 7 d” value (B16 [6]) of the same sequence?
Answer: Its value is 1.1.

Question: What about the “Dct/Trp2 promoter activity (CAT assay)” value (Dct/Trp2 promoter [7]) of the same sequence?
Answer: The value was “do not have significant effect”.

Question: What about the “Dct/Trp2 promoter activity (CAT assay)” value (Dct/Trp2 promoter [8]) of the same sequence?
Answer: Its value is “do not have significant effect”.
